What was measured:
[1] = test system: alanine aminotransferase (ALAT); assay: ALAT elevation during longer-term treatment with ximelagatran (clinical trials); format: in vivo, human
Excerpt: Phase III clinical trials have been performed using fixed doses of melagatran and ximelagatran for the prevention of VTE in hip or knee replacement surgery. In addition, clinical trials have been performed using ximelagatran for the treatment and long-term secondary prevention of VTE, and for the prevention of stroke in patients with non-valvular atrial fibrillation. Ximelagatran has also been tested for secondary thrombosis prophylaxis post-myocardial infarction/acute coronary syndrome (ACS).
Alanine aminotransferrase (ALAT) is an enzyme mostly expressed in the liver (EC 2.6.1.2). It is also called serum glutamate pyruvate transaminase (SGPT) or alanine transaminase (ALT). This enzyme is release into the plasma by liver cell death, which is a normal event. However, when liver cell death increases, ALAT levels rise above the normal range. The spill-over of this enzyme into blood is routinely measured as a marker of abnormal liver-cell damage. For example, alcoholic or viral hepatitis will increase ALAT levels, as will severe congestive heart failure. ALAT is also markedly raised in hepatitis and other acute liver damage. An elevated ALAT in the presence of normal levels of plasma alkaline phosphatase helps distinguish liver disease caused by liver-cell damage from diseases caused by problems in biliary ducts. Elevations of ALAT are normally measured in multiples of the upper limit of normal (ULN), with a reference range of 15-45 U/L in most laboratories. In 1987, in a study of 19,877 healthy Air Force recruits, only 99 (0.5%) had confirmed ALAT elevations (as reviewed in Green & Flamm (2002) Gastroenterology 123:1367-1384).
The increase in ALAT values with ximelagatran usually occurred within the first 6 months of treatment and were mainly asymptomatic. […] Subject to the future regulatory approval of ximelagatran, regular liver function testing (LFT) using an appropriate algorithm may be required if ximelagatran is used for treatment periods exceeding a month. […]

PON1 = PON1 (Homo sapiens, UniProt P27169); settings: cited from earlier work
Chain of PON1 (P27169 whole entry): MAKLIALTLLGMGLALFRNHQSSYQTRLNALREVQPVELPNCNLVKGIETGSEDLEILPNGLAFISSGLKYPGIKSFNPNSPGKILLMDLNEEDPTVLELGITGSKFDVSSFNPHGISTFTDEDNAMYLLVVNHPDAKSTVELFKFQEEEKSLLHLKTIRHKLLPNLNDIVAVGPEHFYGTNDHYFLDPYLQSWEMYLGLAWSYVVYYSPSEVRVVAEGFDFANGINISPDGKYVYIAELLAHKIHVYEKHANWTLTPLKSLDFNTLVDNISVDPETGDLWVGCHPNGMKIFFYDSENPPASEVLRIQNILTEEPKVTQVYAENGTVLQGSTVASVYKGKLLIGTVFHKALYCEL

Row | Structure (SMILES) | patients exhibiting levels of alanine aminotransferase (ALAT) 3-fold or more above the upper limit of normal (≧3×ULN) ([1]; longer-term treatment (>35 days), 1.2% in the comparator groups) [%] | reversibility of ALAT increases ([1]; regardless of whether treatment was continued or discontinued) | time of occurrence of the increase in ALAT values ([1]; usually, of treatment, mainly asymptomatic) [months] | hydrolysis by PON1 (PON1)
1 | CCOC(=O)CN[C@@H](C(=O)N1CC[C@H]1C(=O)NCc1ccc(/C(N)=N\O)cc1)C1CCCCC1 [ximelagatran, EtOOC—CH2—(R)Cgl-Aze-Pab-OH] | 7.9 | reversible in most patients | ≤ 6 | –
2 | CC[C@H](C)C(=O)O[C@H]1C[C@@H](C)C=C2C=C[C@H](C)[C@H](CC[C@@H]3C[C@@H](O)CC(=O)O3)[C@H]21 [lovastatin] | – | – | – | hydrolyzed by PON1
3 | CC(=O)S[C@@H]1CC2=CC(=O)CC[C@]2(C)[C@H]2CC[C@@]3(C)[C@@H](CC[C@@]34CCC(=O)O4)[C@H]12 [spironolactone] | – | – | – | hydrolyzed by PON1
4 | CC[C@H](C)C(=O)O[C@H]1CCC=C2C=C[C@H](C)[C@H](CC[C@@H]3C[C@@H](O)CC(=O)O3)[C@H]21 [mevastatin] | – | – | – | hydrolyzed by PON1

— US20090029367A1 (AstraZeneca AB, priority 2005, published 2009)
